Patent publication US20210213134A1, “THIOL-BASED MULTIVALENT DRUG DELIVERY COMPOSITIONS” (ORPRO THERAPEUTICS, INC., priority 2018, published 2021)

Experiments:
[1] = target: T1, insulin disulfides (heterodimeric insulin) (Homo sapiens, UniProt P01308); test: single-turnover insulin protein disulfide reduction assay (RP-HPLC of insulin heterodimer peak); format: biochemical; details: relative GSH:TRX concentrations comparable to the airway, pH 8, FIG. 1
T1 construct: fully disulfide-bonded heterodimeric insulin
Protocol: Left side of FIG. 1—polyacrylamide gel electrophoresis of native human thioredoxin-1 (TRX). Lane 1: Molecular weight standards; Lane 2: Oxidized TRX; Lane 3: Oxidized TRX following reaction with dithiothreitol (DTT); Lane 4: Oxidized TRX following reaction with reduced glutathione (GSH); Lane 5: Oxidized TRX following reaction with GSH followed by DTT. Right side of FIG. 1—TRX was oxidized by exposure to ambient air for one week then incubated with either DTT or GSH at pH 8 for 1 hour followed by purification over a size exclusion column to remove unreacted free DTT or GSH after which the TRX was collected and used in a single-turnover insulin protein-disulfide reduction assay. […] After 30 min, 60 min and 120 minutes aliquots were taken and diluted with 0.1% TFA and 17 uM (final) iodoacetic acid and analyzed over RP-HPLC. Absorbance was monitored at 214 nm and the peak area of the insulin heterodimer fraction was determined at each time point to quantify TRX protein disulfide-reducing activity.
C35STRX was oxidized and Lys residues were conjugated to an azido-PEG linker. The conjugated material was then reduced and tested for molecular weight using SDS-PAGE (FIG. 5D) and MALDI-TOF (FIG. 5E) and activity assessed using a single-turnover insulin protein disulfide reduction assay. […]

[2] = inhalation vs. i.v.; cited from earlier work

T1 sequence (P01308 25-54 limits assumed): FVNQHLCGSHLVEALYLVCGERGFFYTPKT
T1 sequence (P01308 90-110 limits assumed): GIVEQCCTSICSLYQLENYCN

| Structure (SMILES) | restoration of insulin disulfide bond reduction activity to oxidized TRX [1] | systemic exposure level by inhalation delivery relative to equivalent i.v. [2] [%] |
| --- | --- | --- |
| N[C@@H](CCC(=O)N[C@@H](CS)C(=O)NCC(=O)O)C(=O)O [GSH, reduced glutathione, reference compound] | capable of restoring insulin disulfide bond reduction activity to oxidized TRX | – |
| CN[C@H](CC(C)C)C(=O)N[C@H]1C(=O)N[C@@H](CC(N)=O)C(=O)N[C@H]2C(=O)N[C@H]3C(=O)N[C@H](C(=O)N[C@H](C(=O)O)c4cc(O)cc(O)c4-c4cc3ccc4O)[C@H](O)c3ccc(c(Cl)c3)Oc3cc2cc(c3O[C@@H]2O[C@H](CO)[C@@H](O)[C@H](O)[C@H]2O[C@H]2C[C@](C)(N)[C@H](O)[C@H](C)O2)Oc2ccc(cc2Cl)[C@H]1O [vancomycin] | – | ~50 |
